Structures can show the parent of a compound that is named as a salt. Where two headings read alike, the source gives them in different places.
Columns and labels:
[1] = biological target: T1, topoisomerase Type I (Bos taurus, UniProt F1MN93); experiment: biochemical
T1 sequence (F1MN93 1-767): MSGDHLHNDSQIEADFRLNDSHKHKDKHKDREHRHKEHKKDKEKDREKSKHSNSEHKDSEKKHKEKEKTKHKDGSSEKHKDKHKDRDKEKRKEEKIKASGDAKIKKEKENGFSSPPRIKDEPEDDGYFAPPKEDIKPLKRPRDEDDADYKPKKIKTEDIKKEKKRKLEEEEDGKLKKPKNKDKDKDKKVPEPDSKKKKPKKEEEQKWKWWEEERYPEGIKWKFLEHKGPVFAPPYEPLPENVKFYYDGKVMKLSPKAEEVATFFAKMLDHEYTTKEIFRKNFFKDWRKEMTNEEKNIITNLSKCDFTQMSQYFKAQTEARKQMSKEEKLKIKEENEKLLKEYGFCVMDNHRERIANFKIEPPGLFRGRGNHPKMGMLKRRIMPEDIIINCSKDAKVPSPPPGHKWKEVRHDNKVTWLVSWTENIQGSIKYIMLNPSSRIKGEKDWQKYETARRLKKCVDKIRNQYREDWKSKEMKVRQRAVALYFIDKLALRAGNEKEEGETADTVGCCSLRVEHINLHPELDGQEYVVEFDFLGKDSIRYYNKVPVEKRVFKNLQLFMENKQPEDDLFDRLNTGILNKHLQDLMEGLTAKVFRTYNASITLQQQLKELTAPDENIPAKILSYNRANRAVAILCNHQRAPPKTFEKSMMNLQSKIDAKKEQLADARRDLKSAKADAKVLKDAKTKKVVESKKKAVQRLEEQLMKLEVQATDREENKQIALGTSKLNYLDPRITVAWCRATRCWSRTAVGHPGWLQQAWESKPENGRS
Description: Cleavable Complex in vitro Assay
The relative topoisomerase Type I inhibitory activity of the compounds of formula (I) was determined by cleavable complex in vitro assay. This assay performed according to the method described in Hsiang, Y. et al., J. Biol. Chem., 260:14873-14878 (1985), correlates well with in vivo anti-tumor activity of topoisomerase inhibitors in animal models of cancer, e.g., camptothecin and its analogs. See Hsiang et al., Cancer Research, 49:4385-4389 (1989) and Jaxel et al., Cancer Research, 49:1465-1469 (1989).

[2] = cited from earlier work
[3] = Wani et al.; cited from earlier work
[4] = test system: tumor; conditions: background on camptothecin; cited from earlier work
[5] = test system: topoisomerase I; conditions: background on camptothecin; cited from earlier work
[6] = test system: leukemia (L-1210); conditions: laboratory animals; cited from earlier work
[7] = test system: certain solid tumors; conditions: laboratory animals; cited from earlier work
[8] = Oxidation during purification; format: physicochemical; conditions: oxidizes to the sulfinyl compound of Example 27
Description: Mp. 195° C. (dec). MS MH+554.

CCC1(O)C(=O)OCc2c1cc1n(c2=O)Cc2c-1nc1cc3c(cc1c2C[n+]1ccccc1)OCCO3 (racemic) [Example 31, 7-Pyridinium methylene-10,11 ethylenedioxy-20(R,S)-camptothecin chloride]
IC50 [1]: > 1000 nM

CCC1(O)C(=O)OCc2c1cc1n(c2=O)Cc2cc3cc4c(cc3nc2-1)OCO4 (stereo not drawn) [10,11-methylenedioxycamptothecin]
water solubility ([2]; compared with camptothecin): as poor as camptothecin
potency relative to unsubstituted camptothecin [3]: more potent

CC[C@@]1(O)C(=O)OCc2c1cc1n(c2=O)Cc2cc3ccccc3nc2-1 [Camptothecin]
antitumor activity [4]: potent antitumor agent
topoisomerase I inhibition [5]: topoisomerase I inhibitor
effectiveness in the treatment of leukemia (L-1210) [6]: effective
effectiveness in the treatment of certain solid tumors [7]: effective
solubility in physiologically compatible, aqueous media [2]: essentially insoluble

CCCCOP(=O)(Cc1c2c(nc3cc4c(cc13)OCCO4)-c1cc3c(c(=O)n1C2)COC(=O)[C@]3(O)CC)OCCCC [Example 15, 7-Di-n-butylphosphonomethylene-10,11-(ethylenedioxy)-20(S)-camptothecin]
IC50 [1]: > 2000 nM

CC[C@@]1(O)C(=O)OCc2c1cc1n(c2=O)Cc2c-1nc1cc3c(cc1c2CSc1ccc(NC(C)=O)cc1)OCCO3 [Example 17, 7-(4-Acetamidophenylthio)methyl-10,11-(ethylenedioxy)-20(S)-camptothecin]
IC50 ([1]; read-out: topoisomerase Type I inhibitory activity (IC50), concentration at which 50% of the DNA substrate has been captured by topoisomerase 1): > 500 nM

CC[C@@]1(O)C(=O)OCc2c1cc1n(c2=O)Cc2c-1nc1cc3c(cc1c2CSc1ccc(N)cc1)OCCO3 [Example 18, 7-(4-Aminophenylthio)methyl-10,11-(ethylenedioxy)-20(S)-camptothecin]
IC50 [1]: > 500 nM

CC[C@@]1(O)C(=O)OCc2c1cc1n(c2=O)Cc2c-1nc1cc3c(cc1c2C[S+]([O-])CCCN(C)C)OCCO3 (stereo partly drawn) [Example 27, 7-(3-Dimethylaminopropylsulfinyl)methyl-10,11-(ethylenedioxy)-20(S)-camptothecin]
oxidation during purification [8]: readily oxidize

CC[C@@]1(O)C(=O)OCc2c1cc1n(c2=O)Cc2c-1nc1cc3c(cc1c2CSc1ccc(NC(=O)CN(C)C)cc1)OCCO3 [Example 28, 7-(4-(2-Dimethylaminoacetamido)phenylthio)methyl-10,11-(ethylenedioxy)-20(S)-camptothecin]
IC50 [1]: > 500 nM

CC[C@@]1(O)C(=O)OCc2c1cc1n(c2=O)Cc2c-1nc1cc3c(cc1c2C[n+]1cccc(CO)c1)OCCO3 [Example 36, 7-(3'-Hydroxymethylpyridinium)methylene-10,11-ethylenedioxy-20(S)-camptothecin chloride]
IC50 ([1]; concentration at which 50% of the DNA substrate has been captured by topoisomerase 1, read-out: topoisomerase Type I inhibitory activity (IC50)): > 500 nM

CC[C@@](O)(C(=O)O)c1cc2n(c(=O)c1CO)Cc1cc3ccccc3nc1-2 [sodium salt]
solubility in physiologically compatible, aqueous media [2]: soluble

From patent publication US6100273A, “Water soluble camptothecin derivatives” (priority 1997, dated 2000)
